≈ marks a conversion by molar mass, not a printed value.
Assays:
S. epidermidis = experiment: In vitro broth microdilution minimal inhibitory concentration, S. epidermidis (Table I); type: cell-based; conditions: Staphylococcus epidermidis; broth microdilution, Mueller-Hinton broth, 24 hour; read-out: MIC (minimal inhibitory concentration), S. epidermidis
Description: (§1) A list is presented in Table I of analogs which exert an in-vitro antibacterial effect.

E. Coli [1] = experiment: In vitro broth microdilution minimal inhibitory concentration, E. Coli (Table I); type: cell-based; conditions: Escherichia coli; broth microdilution, Mueller-Hinton broth, 24 hour; read-out: MIC (minimal inhibitory concentration), E. Coli
Description: as §1

Staphylococcus aureus = experiment: In vivo efficacy in mice infected intraperitoneally with Staphylococcus aureus (Table III); conditions: 4 h, mice, intraperitoneal infection, 5% hog gastric mucin, oral dosing at infection and four hours post-infection, Reed-Muench, read-out: ED50, S. auerus
Description: (§2) In-vivo efficacy determinations were performed by inoculating mice interaperitoneally with cultures of the infecting organism diluted to produce 90-100% mortality in control animals within seven days. The diluents used were trypticase soy broth for E. coli, Proteus sp. and Psuedomonas aeruginosa and 5% hog gastric mucin for Staphylococcus aureus infections. The compounds, dissolved or suspended in 0.25% methocel.cndot.H2 O were administered orally by intubation at the time of infection and again at four hours post-infection. Mortality was recorded daily until test termination and the 50 percent effective dose. ED50, was calculated by the Reed-Muench method (Reed, L. G. and Muench, H., "A simple method of estimating fifty percent end points." American Journal of Hygiene, 27, 1938, 493-497).

E. coli [2] = experiment: In vivo efficacy in mice infected intraperitoneally with E. coli (Table III); conditions: Escherichia coli, 4 h; mice, intraperitoneal infection, trypticase soy broth; oral dosing at infection and four hours post-infection; Reed-Muench; read-out: ED50, E. Coli
Description: as §2

CN(C)S(=O)(=O)c1ccc(N2CC(CO)OC2=O)cc1 (racemic) [Example 3a, dl-N,N-dimethyl-4-[5-(hydroxymethyl)-2-oxooxazolidin-3-yl]benzenesulfonamide]
MIC (S. epidermidis): 50 µg/mL (≈ 166 µM)
MIC (E. Coli [1]): > 200 µg/mL

CNS(=O)(=O)c1ccc(N2CC(CO)OC2=O)cc1 (racemic) [Example 3b, dl-N-methyl-4-[5-(hydroxymethyl)-2-oxooxazolidin-3-yl]benzenesulfonamide]
MIC (S. epidermidis): 50 µg/mL (≈ 175 µM)
MIC (E. Coli [1]): > 200 µg/mL

[N-]=[N+]=NS(=O)(=O)c1ccc(N2CC(CO)OC2=O)cc1 (racemic) [Example 4, dl-4-[5-(Hydroxymethyl)-2-oxooxazolidin-3-yl]benzenesulfonyl Azide]
ED50 (Staphylococcus aureus): 26 mg/kg
ED50 (E. coli [2]): 17.9 mg/kg
MIC (S. epidermidis): 4.2 µg/mL (≈ 14.1 µM)
MIC (E. Coli [1]): 12.5 µg/mL (≈ 41.9 µM)

O=C1OC(CO)CN1c1ccc(S(=O)(=O)N(Cl)Cl)cc1 (racemic) [Example 11, dl-N,N-Dichloro-4-[5-(hydroxymethyl)-2-oxooxazolidin-3-yl]benzenesulfonamide]
ED50 (Staphylococcus aureus): 36.3 mg/kg
ED50 (E. coli [2]): 53.7 mg/kg
MIC (S. epidermidis): > 100 µg/mL
MIC (E. Coli [1]): > 100 µg/mL

O=C(NS(=O)(=O)c1ccc(N2CC(CO)OC2=O)cc1)C(Cl)Cl (racemic) [Example 34, dl-2,2-Dichloro-N-[4-[5-(Hydroxymethyl)-2-oxooxazolidin-3-yl]phenylsulfonyl]acetamide]
ED50 (Staphylococcus aureus): 18.3 mg/kg
MIC (S. epidermidis): > 200 µg/mL
MIC (E. Coli [1]): > 200 µg/mL

O=C1OC(CO)CN1c1ccc(S(=O)(=O)NC(=O)C(Cl)(Cl)Cl)cc1 (racemic) [Example 35, dl-2,2,2-Trichloro-N-[4-[5-(hyroxymethyl)-2-oxooxazolidin-3-yl]phenylsulfonyl]acetamide]
ED50 (Staphylococcus aureus): 58.5 mg/kg
MIC (S. epidermidis): > 200 µg/mL
MIC (E. Coli [1]): > 200 µg/mL

CC(=NO)c1ccc(N2CC(CO)OC2=O)cc1 (racemic) [Example 37, dl-5-Hydroxymethyl-3-[4-(1-hydroxyiminoethyl)phenyl]-2-oxazolidinone]
ED50 (Staphylococcus aureus): 68 mg/kg
MIC (S. epidermidis): > 50 µg/mL
MIC (E. Coli [1]): > 50 µg/mL

CON=C(C)c1ccc(N2CC(CO)OC2=O)cc1 (racemic) [Example 38, dl-5-Hydroxymethyl-3-[4-(1-methoxyiminoethyl)phenyl]-2-oxazolidinone]
ED50 (Staphylococcus aureus): 76.6 mg/kg

CC(C)c1ccc(N2CC(CO)OC2=O)cc1 (racemic) [Example 39]
ED50 (Staphylococcus aureus): 116 mg/kg

C=CCOCC1CN(c2ccc(C(C)C)cc2)C(=O)O1 (racemic) [Example 40]
ED50 (Staphylococcus aureus): 79.8 mg/kg

CC(=O)c1ccc(N2CC(CO)OC2=O)cc1 (racemic) [Example 41]
ED50 (Staphylococcus aureus): 35.8 mg/kg
ED50 (E. coli [2]): 97.6 mg/kg

N#Cc1ccc(N2CC(CO)OC2=O)cc1 (racemic) [Example 42]
ED50 (Staphylococcus aureus): 66.4 mg/kg

O=C1OC(CO)CN1c1ccc([N+](=O)[O-])cc1 (racemic) [Example 43]
ED50 (Staphylococcus aureus): 40 mg/kg
ED50 (E. coli [2]): > 360 mg/kg

O=C1O[C@H](CO)CN1c1ccc(S(=O)(=O)NC2CC2)cc1 [Example 9, l-4-[5-(Hydroxymethyl)-2-oxooxazolidin-3-yl]-N-cyclopropylbenzenesulfonamide]
ED50 (Staphylococcus aureus): 89.2 mg/kg
MIC (S. epidermidis): > 100 µg/mL
MIC (E. Coli [1]): > 100 µg/mL

CONS(=O)(=O)c1ccc(N2C[C@@H](CO)OC2=O)cc1 [Example 10, l-4-[5-(Hydroxymethyl)-2-oxooxazolidin-3-yl]-N-methoxybenzenesulfonamide]
ED50 (Staphylococcus aureus): 52 mg/kg
MIC (S. epidermidis): 100 µg/mL (≈ 331 µM)
MIC (E. Coli [1]): > 100 µg/mL

COC[C@@H]1CN(c2ccc(SC)cc2)C(=O)O1 [Example 31, l-5-(Methoxymethyl)-3-[4-(methylthio)phenyl]-2-oxazolidinone]
ED50 (Staphylococcus aureus): 54.6 mg/kg
MIC (S. epidermidis): > 200 µg/mL
MIC (E. Coli [1]): > 200 µg/mL

COC[C@@H]1CN(c2ccc(S(N)(=O)=O)cc2)C(=O)O1 [Example 33, l-4-[5-(Methoxymethyl)-2-oxooxazolidin-3-yl]benzenesulfonamide]
ED50 (Staphylococcus aureus): 59.6 mg/kg
MIC (S. epidermidis): > 200 µg/mL
MIC (E. Coli [1]): > 200 µg/mL
